# Source: EP0986299B1, “PLANT TRANSFORMATION METHODS” (Syngenta Participations AG, priority 1997, dated 1998)
# Like-named read-outs stand apart in the source and are kept apart here.
# What was measured:
# [1] = system: maize embryos; conditions: for Score (Callus initiation): transfer 2DG4 + AgNO3 +Cef, two weeks
# Method: Immature embryos (1.2 to 2.2 mm in length) are aseptically excised 14-15 days after pollination from surface-sterilized, greenhouse-grown ears and plated scutellum up on callus initiation medium, 2DG4 + 5 mg/l chloramben (2DG4-5Chl). 2DG4 medium is Duncan's medium modified to contain […] sucrose.
# Embryos with callus response: • Immature embryos are sterilized as described above and plated on callus initiation medium (2DG4-5Chl) and cultured therein for 1 to 7 days. The resulting tissue is used as samples for inoculation.
# (§1) Strain A. tumefaciens LBA4404 (pAL4404, pSB1) is used in these experiments. pAL4404 is a disarmed helper plasmid. pSB1 is a wide host range plasmid that contains a region of homology to pGIGUP and a 15.2 kb Kpnl fragment from the virulence region of pTiBo542 (Ishida et al., 1996; High efficiency transformation of maize (Zea mays L.) mediated by Agrobacterium tumefaciens, Nature Biotechnology 14, 745-750). The introduction of the plasmid pGlGUP by electroporation into LBA4404(pAL4404, pSB1) results in a cointegration of pGlGUP and pSB1. The T-DNA of this plasmid contains a plant expressible PAT gene driven by the ubiquitin promoter to provide resistance to phosphinothricin and a gene for GUS with an intron in the N-terminal codon of the coding sequence driven by the Gelvin promoter. This intron-GUS gene expresses GUS activity in the plant cell but not in Agrobacterium.
# (§2) Agrobacterium is grown for 3 days on YP medium (5g/l yeast extract, 10g/l peptone, 5g/l NaCl, 15 g/l agar, pH 6.8) supplemented with 50 mg/l spectinomycin and 10 mg/l tetracycline. Bacteria are collected with a loop and suspended in N6 liquid medium at a density ranging from 10^9 to 5 10^9cells/ml. Agrobacterium cells can also be collected from an overnight culture in YP medium and resuspended in N6 liquid medium.
# (§3) Maize tissues prepared as described above are inoculated with Agrobacterium. Maize tissues are soaked in the bacterial suspension for 5-10 min and then plated on medium with or without silver nitrate (1 to 10 mg/l). Tissues are also inoculated with a 5 µl drop 10^9 to 5x10^9cells/ml of an Agrobacterium suspension placed on the top of the tissue. After inoculation, maize tissues are cultured in the dark at 25°C with or without silver nitrate in the medium (1 to 10 mg/l). 2 or 3 days after inoculation, tissues are transferred on the same medium supplemented with cefotaxime (250 mg/l) with or without silver nitrate.
# [2] = system: maize type I callus; conditions: transfer 2DG4+ AgNO3 + Cef, 2 weeks
# Method: Embryos plated on callus initiation medium (2DG4 + 5 Chloramben) for 7 to 20 days give rise to callus. […] Resultant embryogenic callus are cut out of embryos and transferred to callus maintenance medium, 2DG4 + 0.5 mg/l (2,4-dichlorophenoxy) acetic acid (2,4-D) and used as samples for inoculation.
# Type I callus obtained by the method described above can be maintained on the maintenance medium (2DG4 + 2,4 D 0.5 mg/l) and subcultured every 2 weeks.
# as §1, §2, §3
# [3] = system: tobacco leaf discs; conditions: silver nitrate during co-cultivation; LBA4404(GIGUP) 10^9 cells/ml
# [4] = system: cell line HE/89; assay: DNA fragmentation (DNA ladders) after Agrobacterium exposure, sensitivity to added agents; format: cell-based; conditions: maize cells exposed to Agrobacterium, agent added
# Method: In order to determine the mechanism of cell death induced by Agrobacterium in maize tissues, genomic DNA is extracted from plant suspension cells harvested 24 or 48 hours after inoculation with Agrobacterium. Exposure to Agrobacterium causes DNA fragmentation in both maize lines, with a pattern characteristic of internucleosomal fragmentation, which is considered an early hallmark of programmed cell death. […] Furthermore, maize cells undergoing programmed cell death could not induce cell death of fresh maize embryogenic tissues.
# Further evidence for Agrobacterium inducing DNA fragmentation is obtained by investigating the sensitivity of the process to Zn^2+ and Ca^2+. […] These characteristics are fully consistent with the effect of these divalent cations on the endogenous endonucleases responsible for DNA cleavage during apoptosis in animal system. The intensity of the ladder also is decreased by addition of cycloheximide, evidence that the process requires de novo gene expression. […] Fragmentation of DNA during apoptosis is also detected in situ by reagents that react with the exposed hydroxyls on the nucleosome units. 12 day old maize embryos from a proprietary elite line of Lancaster parentage are inoculated with LBA4404 and plated on DG4 medium supplemented with chloramben. Koziel, M.G., & al. 1993. Bio/Technology 11: 194-200. Apoptotic cells are detected by in situ staining with TACS-1 kit (Trevigen), which involves end labeling the DNA fragments by the klenow enzyme using dNTP conjugated to a detectable marker, giving a dark insoluble precipitate indicative of genomic fragmentation. Cullivier, O., Pirianov, G., Kleuser, B., Vanek, P.G., Coso, O.A., Gutking, J.S. and Spiegel, S. (1996) Nature 381, 800-803. Embryos are soaked in 3.7% formadehyde solution and processed as described by the manufacturer. To detect genomic DNA cleavage in situ, fixed embryos are treated with the TACS-1 kit. Fixed cross-sections are first treated with proteinase K for 5 min at room temperature and then dipped for 5 min into 2% hydrogen peroxide to remove endogenous peroxidase. […]
# [5] = system: HE/89
# Method: The following experiments employ maize inbred lines (Zea mays L. ) HE/89 and a line here designated as Elite 1. […] Suspension culture of Elite 1 is initiated from friable embryogenic callus selected from immature embryos. The HE/89 line is grown in a modified liquid N6 medium amended with 500 mg/l Bacto tryptone, 30 g/l sucrose and 0.5 mg/l 2,4-dichlorophenoxy acetic acid (2,4-D) (N6M). The Elite 1 line is grown in N6 liquid medium (Chu et al., 1975) supplemented with 30 g/l sucrose and 2 mg/l 2,4-D (2N63S). The Nicotiana tabacum cell line NT-1 grown in Murashige and Skoog medium supplemented with 2 mg/l of 2,4-D and sucrose (30g/l) (MS3S) is used as an Agrobacterium-susceptible control. Suspension cultures are maintained in liquid medium on a rotary shaker (120 rpm) and are subcultured every 7 days.
# Bacteria are grown in YP medium (5 g/L yeast extract, 10 g/l peptone, 5 g/l NaCl, pH 6.8) for 24 hr at 28°C. […]
# Friable embryogenic callus of HE/89 maize and of a proprietary elite inbred maize maintained in liquid medium are incubated with Agrobacterium for 10 min, 1 hr, 24 hr or 48 hrs prior to transfer to cefotaxim-containing medium. […] The presence or absence of necrosis is scored 2, 4 and 7 days after inoculation and the relative intensity of necrosis is expressed as follow: +, rare formation of necrosis; ++, weak necrosis; +++, strong necrosis; ++++, very strong necrosis.
smiles,measurement,setting,value
"O=[N+]([O-])[O-].[Ag+] [AgNO3, silver nitrate]",embryos able to produce embryogenic calli,"[1]; embryos plated on medium containing silver nitrate, inoculated with Agrobacterium",About 50%
same,Score (Callus initiation),"[1]; no pretreatment, co-inoculation 2DG4 + AgNO3, LBA4404 (GIGUP) 10^9 cells/ml",55%
same,Score (Callus initiation),"[1]; no pretreatment, co-inoculation 2DG4, LBA4404 (GIGUP) 10^9 cells/ml",30%
same,Score (Callus initiation),"[1]; pretreatment 2DG4 (6 days) + 1 day on 2DG4 + AgNO3, co-inoculation 2DG4 + AgNO3",88%
same,Score (Callus initiation),"[1]; pretreatment 2DG4 (6 days), co-inoculation 2DG4 + AgNO3",65%
same,Score (Callus initiation),"[1]; pretreatment 2DG4 + AgNO3 (1 day), co-inoculation 2DG4 + AgNO3",43%
same,Score (Callus initiation),"[1]; pretreatment 2DG4 + AgNO3(4 days), co-inoculation 2DG4 + AgNO3",27%
same,Score (Survival of tissues),"[2]; 1/2 month old Type I callus, pretreatment 2DG4+AgNO3, co-inoculation 2DG4+AgNO3",95%
same,Score (Survival of tissues),"[2]; 1/2 month old Type I callus, pretreatment 2DG4, co-inoculation 2DG4+AgNO3",75%
same,Score (Survival of tissues),"[2]; 10 month-old Type I callus, pretreatment 2DG4+ AgNO3, co-inoculation 2DG4+ AgNO3",66%
same,Score (Survival of tissues),"[2]; 10 month-old Type I callus, pretreatment 2DG4, co-inoculation 2DG4+ AgNO3",55%
same,GUS activity,[3],No significant decrease
[Ca+2] [Ca^2+],intensity of DNA ladders (genomic fragmentation),[4],increased the intensity of DNA ladders
[Zn+2] [Zn^2+],intensity of DNA ladders (genomic fragmentation),[4],markedly reduced genomic fragmentation
CO/N=C(\C(=O)N[C@@H]1C(=O)N2C(C(=O)O)=C(COC(C)=O)CS[C@H]12)c1csc(N)n1 [cefotaxime],necrosis of maize tissue,[5],does not cause the maize tissue to become necrotic
C[C@@H]1C[C@@H]([C@H](O)CC2CC(=O)NC(=O)C2)C(=O)[C@@H](C)C1 [cycloheximide],intensity of DNA ladders (genomic fragmentation),[4],decreased
